Data taken from US20170290882A1, “Specific Combined Therapy of Malignant Tumors with a Cytostatic and Its Modifier” (priority 2015, published 2017).

Assays:
[1] = system: P388 lymphoplastic leukemia; experiment: Combined therapy different cytostatics+GMDP-A in the P388 lymphoplastic leukemia model; format: in vivo, BDF1 mice; settings: single cytostatic alone (DDP 1/2, gemzar 1/2, CP 1/4 therapeutic dose), start 24 hours after inoculation
Method: Anti-tumor efficiency of the claimed combined therapy and comparative monotherapy using only a cytostatic or only GMDP-A modifier was assessed by the criteria commonly used in experimental oncology: tumor volume (TV), tumor growth inhibition (TGI), increase of the animal life time (ILT), tumor metastasis frequency (MF), metastasis inhibition rate (MI).
Comparative study was carried out of the GMDP-A modifying effect relatively different cytostatic agents: cisplatin (DDP), gemzar and cyclophosphan (CP), in the P388 lymphoplastic leukemia model. Efficiency of combined therapy with cytostatics and GMDP-A was assessed while using DDP in amount of ½ therapeutic dose, gemzar as ½ therapeutic dose and CP in amount of ¼ therapeutic dose. Treatment was started on the early term of tumor growth (in 24 hours after inoculation); GMDP-A was injected during 21 days in a daily dose of 3.75 mg/kg. The drug was administered subcutaneously in 2 areas: in the tumor growth area (over the tumor) or in symmetry area (on the opposite side of the tumor node).
The following commercially-available drugs were used: Cyclophosphan Endoxan® trade mark, manufactured by Baxter Oncology GmbH, Germany; Cisplatin, Cisplatin Teva trade mark, manufacturer is Teva Pharmaceutical Industries Ltd., Israel (fabricated at Pharmachemie B. V., the Netherlands); Gemcitabine, Gemcitar trade mark, manufactured by CJSC Biocad, Russia.
1 mg/ml GMDP-A solution for subcutaneous injection was prepared by dissolving GMDP-A lyophilisate in water for injections.

[2] = system: P388 lymphoplastic leukemia; experiment: Combined therapy DDP+GMDP-A in the P388 lymphoplastic leukemia model; format: in vivo, mice BDF1; settings: single DDP 4 mg/kg i.v. alone
Method: (§1) They were transplanted on the right-side surface of the animal body.
(§2) The animals with tumors were treated in test groups at the early (24 hours after tumor inoculation) and late (5 days after tumor inoculation) terms of the tumor growth using a single cytostatic injection intravenously in a dose equal to ½ or ¼ of therapeutic one and various schedules for GMDP-A injection: • Primary subcutaneous injection of GMDP-A modifier in a single dose 3.75 mg/kg; • Repeated protracted subcutaneous administration of GMDP-A modifier according to different schedules: 4-fold, 9-fold and 20-fold, once per day, in a single dose of 3.75 mg/kg (course dose is 18.75 mg/kg, 37.5 mg/kg and 78.75 mg/kg, correspondingly). Dosage frequency depends upon the model (histological form of transplanted tumor).
(§3) To identify efficiency of the claimed combined therapy, independent medication was carried out as a control after tumor inoculation using one component of binary therapy-cytostatic drug or a modifier. Cytostatic was injected intravenously in amount of ½ or ¼ of therapeutic dose once after 24 hours or 5 days after tumor inoculation; GMDP-A modifier was administered subcutaneously in a single dose of 3.75 mg/kg 5-fold from the 1st day to the 5th day or from the 5th day to the 9th day, or 10-fold from the 1st day to the 10th day or from the 5th day to the 14th day, or 21-fold from the 1st day to the 21st day after tumor inoculation.
Efficiency of the combined therapy—chemotherapy with cisplatin cytostatic (DDP) and bioherapy with GMDP-A was assessed on P388 lymphoplastic leukemia model inoculated to mice BDF1, females, subcutaneously on the right-side body surface.
GMDP-A was administered to mice subcutaneously as a single dose of 3.75 mg/kg every day with different schedules: • Five-fold (total dose is 18.75 mg/kg) on the 1st day to the 5th day or on the 5th day to the 9th day after tumor inoculation; • Ten-fold (total dose is 37.5 mg/kg) on the 1st day to the 10th day or on the 5th day to the 14th day after tumor inoculation; • Twenty-one-fold (total dose is 78.75 mg/kg) on the 1st day to the 21st st day after tumor inoculation.
DDP (Cisplatin, Cisplatin Teva trade mark, manufacturer is Teva Pharmaceutical Industries Ltd., Israel, fabricated at Pharmachemie B.V., the Netherlands) was administered intravenously as a single dose ma 4 mg/kg (½ of therapeutic dose).

B16 melanoma = experiment: Binary therapy DDP+GMDP-A in the B16 melanoma model; format: in vivo, BDF1 mice; settings: single DDP 4 mg/kg i.v. alone
Method: as §1, §2, §3
Efficiency of the combined therapy—chemotherapy with DDP cytostatic and biotherapy with GMDP-A was assessed on B16 melanoma model inoculated to BDF1 mice, females, subcutaneously on the right-side body surface.
GMDP-A was administered to mice subcutaneously as a single dose of 3.75 mg/kg every day with different schedules:
Five-fold (total dose is 18.75 mg/kg) on the 1st day to the 5th day or on the 5th day to the 9th day after tumor inoculation;
Ten-fold (total dose is 37.5 mg/kg) on the 1st day to the 10th day or on the 5th day to the 14th day after tumor inoculation;
DDP (Cisplatin, Cisplatin Teva trade mark, manufacturer is Teva Pharmaceutical Industries Ltd., Israel, fabricated at Pharmachemie B.V., the Netherlands) was administered intravenously as a single dose of 4 mg/kg (½ of therapeutic dose).

[3] = system: P388 lymphoplastic leukemia; experiment: GMDP-A lyophilisate versus final pharmaceutical form, alone and with DDP, in the P388 lymphoplastic leukemia model; format: in vivo, BDF1 mice; settings: if given, 21-fold, single
Method: Therapeutic efficiency of GMDP-A lyophilisate and the GMDP-A final pharmaceutical form was compared in the model of P338 lymphoplastic leukemia solid version at the early treatment start (in 24 hour after subcutaneous transplantation of tumor material) as GMDP-A monotherapy (lyophilisate or the final pharmaceutical form) as well as combined administration with DDP.
As a final pharmaceutical form, “GMDP-A, 1 mg/ml solution for subcutaneous injection” sterile solutions were used. They contained GMDP-A and the following auxiliary substances and carriers in pharmaceutically-accepted amounts: sorbitol, disodium edeteate, propylene glycol, water.

[4] = during intravenous injection; cited from earlier work

In the case of `Nc1ccn([C@@H]2O[C@H](CO)[C@@H](O)C2(F)F)c(=O)n1` [Gemzar, Gemcitabine], the “tumor growth inhibition (TGI)” value ([1]; day 7) is reported as 60%, the “tumor growth inhibition (TGI)” value ([1]; day 12) is reported as 37% and the “tumor growth inhibition (TGI)” value ([1]; day 14) is reported as 34%. For the same molecule, the “tumor growth inhibition (TGI)” value ([1]; day 19) was 45%, the “tumor growth inhibition (TGI)” value ([1]; day 21) was 44% and the Average life time [1] was 29 ± 2 days. For the same molecule, the “ILT (increase of the animal life time)” value [1] was 21%, the “Metastasis MF (tumor metastasis frequency)” value (shortened to “Metastasis MF”) [1] was 100% and the “Metastasis MI (metastasis inhibition rate)” value [1] was 69%.

In the case of `N.N.[Cl][Pt][Cl]` [DDP, cisplatin, reference compound], the Tumor volume ([2]; day 7, early start (1st day)) is reported as 37.9 ± 4.5 mm^3, the “tumor growth inhibition (TGI)” value ([2]; day 7, early start (1st day)) is reported as 64% and the Tumor volume ([2]; day 7, late start (5th day)) is reported as 75.4 ± 4.8 mm^3. The “tumor growth inhibition (TGI)” value ([2]; day 7, late start (5th day)) was 28%, the Tumor volume ([2]; day 9, early start (1st day)) was 67.5 ± 7.7 mm^3 and the “tumor growth inhibition (TGI)” value ([2]; day 9, early start (1st day)) was 53%. The Tumor volume ([2]; day 9, late start (5th day)) was 65.7 ± 6.2 mm^3, the “tumor growth inhibition (TGI)” value ([2]; day 9, late start (5th day)) was 54% and the Tumor volume ([2]; day 12, early start (1st day)) was 76.7 ± 7.7 mm^3. For the same molecule, the “tumor growth inhibition (TGI)” value ([2]; day 12, early start (1st day)) was 61%, the Tumor volume ([2]; day 12, late start (5th day)) was 95.9 ± 8.4 mm^3 and the “tumor growth inhibition (TGI)” value ([2]; day 12, late start (5th day)) was 51%. For the same molecule, the Tumor volume ([2]; day 14, early start (1st day)) was 155.3 ± 12 mm^3, the “tumor growth inhibition (TGI)” value ([2]; day 14, early start (1st day)) was 42% and the Tumor volume ([2]; day 14, late start (5th day)) was 149.3 ± 11.6 mm^3. For the same molecule, the “tumor growth inhibition (TGI)” value ([2]; day 14, late start (5th day)) was 44%, the Tumor volume ([2]; day 19, early start (1st day)) was 374.1 ± 28.4 mm^3 and the “tumor growth inhibition (TGI)” value ([2]; day 19, early start (1st day)) was 41%. For the same molecule, the Tumor volume ([2]; day 19, late start (5th day)) was 448.9 ± 33.2 mm^3, the “tumor growth inhibition (TGI)” value ([2]; day 19, late start (5th day)) was 30% and the Average life time ([2]; early start (1st day)) was 23 ± 0.7 days. The “ILT (increase of the animal life time)” value ([2]; early start (1st day)) was −4%, the “Metastasis MF” value ([2]; early start (1st day)) was 100% and the “Metastasis MI (metastasis inhibition rate)” value ([2]; early start (1st day)) was 49%. For the same molecule, the Average life time ([2]; late start (5th day)) was 24 ± 0.6 days, the “ILT (increase of the animal life time)” value ([2]; late start (5th day)) was 0% and the “Metastasis MF” value ([2]; late start (5th day)) was 100%. The “Metastasis MI (metastasis inhibition rate)” value ([2]; late start (5th day)) was 50%, the “tumor growth inhibition (TGI)” value ([1]; day 7) was 27% and the “tumor growth inhibition (TGI)” value ([1]; day 12) was 36%. The “tumor growth inhibition (TGI)” value ([1]; day 14) was 43%, the “tumor growth inhibition (TGI)” value ([1]; day 19) was 33% and the “tumor growth inhibition (TGI)” value ([1]; day 21) was 22%. For the same molecule, the Average life time [1] was 26 ± 1 days, the “ILT (increase of the animal life time)” value [1] was 9% and the “Metastasis MF” value [1] was 100%. The “Metastasis MI (metastasis inhibition rate)” value [1] was 40%, the Tumor volume (B16 melanoma; day 7, early start (1st day)) was 3 ± 3 mm^3 and the “tumor growth inhibition (TGI)” value (B16 melanoma; day 7, early start (1st day)) was 94%. For the same molecule, the Tumor volume (B16 melanoma; day 9, early start (1st day)) was 13 ± 5 mm^3, the “tumor growth inhibition (TGI)” value (B16 melanoma; day 9, early start (1st day)) was 89% and the Tumor volume (B16 melanoma; day 9, late start (5th day)) was 51 ± 8 mm^3. For the same molecule, the “tumor growth inhibition (TGI)” value (B16 melanoma; day 9, late start (5th day)) was 56%, the Tumor volume (B16 melanoma; day 12, early start (1st day)) was 54 ± 18 mm^3 and the “tumor growth inhibition (TGI)” value (B16 melanoma; day 12, early start (1st day)) was 80%. The Tumor volume (B16 melanoma; day 12, late start (5th day)) was 163 ± 22 mm^3, the “tumor growth inhibition (TGI)” value (B16 melanoma; day 12, late start (5th day)) was 38% and the Tumor volume (B16 melanoma; day 14, early start (1st day)) was 117 ± 20 mm^3. For the same molecule, the “tumor growth inhibition (TGI)” value (B16 melanoma; day 14, early start (1st day)) was 69%, the Tumor volume (B16 melanoma; day 14, late start (5th day)) was 270 ± 45 mm^3 and the “tumor growth inhibition (TGI)” value (B16 melanoma; day 14, late start (5th day)) was 23%. The Tumor volume (B16 melanoma; day 16, early start (1st day)) was 232 ± 36 mm^3, the “tumor growth inhibition (TGI)” value (B16 melanoma; day 16, early start (1st day)) was 58% and the Tumor volume (B16 melanoma; day 16, late start (5th day)) was 424 ± 43 mm^3. The “tumor growth inhibition (TGI)” value (B16 melanoma; day 16, late start (5th day)) was 24%, the Tumor volume (B16 melanoma; day 19, early start (1st day)) was 653 ± 176 mm^3 and the “tumor growth inhibition (TGI)” value (B16 melanoma; day 19, early start (1st day)) was 39%. The Tumor volume (B16 melanoma; day 19, late start (5th day)) was 1010 ± 173 mm^3, the “tumor growth inhibition (TGI)” value (B16 melanoma; day 19, late start (5th day)) was 5% and the Average life time (B16 melanoma; early start (1st day)) was 28 ± 3 days. For the same molecule, the “ILT (increase of the animal life time)” value (B16 melanoma; early start (1st day)) was 33%, the “Metastasis MF” value (B16 melanoma; early start (1st day)) was 20% and the “Metastasis MI (metastasis inhibition rate)” value (B16 melanoma; early start (1st day)) was 99%. The Average life time (B16 melanoma; late start (5th day)) was 25 ± 3 days, the “ILT (increase of the animal life time)” value (B16 melanoma; late start (5th day)) was 19% and the “Metastasis MF” value (B16 melanoma; late start (5th day)) was 100%. The “Metastasis MI (metastasis inhibition rate)” value (B16 melanoma; late start (5th day)) was 11%, the Tumor volume ([3]; day 8, early start (24 hour)) was 29.4 ± 5.3 mm^3 and the “tumor growth inhibition (TGI)” value ([3]; day 8, early start (24 hour)) was 65%. For the same molecule, the Tumor volume ([3]; day 12, early start (24 hour)) was 53.6 ± 5.4 mm^3, the “tumor growth inhibition (TGI)” value ([3]; day 12, early start (24 hour)) was 67% and the Tumor volume ([3]; day 16, early start (24 hour)) was 96.3 ± 5.1 mm^3. For the same molecule, the “tumor growth inhibition (TGI)” value ([3]; day 16, early start (24 hour)) was 73%, the Tumor volume ([3]; day 20, early start (24 hour)) was 440 ± 26.7 mm^3 and the “tumor growth inhibition (TGI)” value ([3]; day 20, early start (24 hour)) was 58%. The Average life time ([3]; early start (24 hour)) was 30.0 ± 2.8 days, the “ILT (increase of the animal life time)” value ([3]; early start (24 hour)) was 22% and the “Metastasis (upper, unnamed value in the Metastasis inhibition index column)” value ([3]; early start (24 hour)) was 172.0 ± 14.4. For the same molecule, the “Metastasis MF” value ([3]; early start (24 hour)) was 100% and the Metastasis inhibition index ([3]; early start (24 hour)) was 32%.

In the case of `CC(=O)N[C@H]1[C@H](O[C@H]2[C@H](O[C@H](C)C(=O)N[C@@H](C)C(=O)N[C@H](CCC(=O)O)C(N)=O)[C@@H](NC(C)=O)C(O)O[C@@H]2CO)O[C@H](CO)[C@@H](O)[C@@H]1O` (stereo partly drawn) [GMDP, N-acetyl-D-glucosaminyl-β-(1-4)-N-acetylmuramoyl-L-alanyl-D-isoglutamine], the Pyrogenicity [4] is listed as “pyrogenic effect”.

With `O=P1(N(CCCl)CCCl)NCCCO1` (stereo not drawn) [CP, cyclophosphan] the “tumor growth inhibition (TGI)” value ([1]; day 7) was 89%, the “tumor growth inhibition (TGI)” value ([1]; day 12) was 86% and the “tumor growth inhibition (TGI)” value ([1]; day 14) was 85%. For the same molecule, the “tumor growth inhibition (TGI)” value ([1]; day 19) was 76%, the “tumor growth inhibition (TGI)” value ([1]; day 21) was 77% and the Average life time [1] was 31 ± 2 days. For the same molecule, the “ILT (increase of the animal life time)” value [1] was 30%, the “Metastasis MF” value [1] was 100% and the “Metastasis MI (metastasis inhibition rate)” value [1] was 89%.
